According to PubChem BioAssay AID2060489 (Molecular Pharmacology Branch, DTP, NCI, 2025):

Test system: 922993-354-T-J3-PDC complex spheroids, viability
Assay: Anticancer human tumor 922993-354-T-J3-PDC patient-derived endometrial carcinoma cell line growth inhibition [GQUAD]
Conditions: for IC50: curve of first compound; for viability, T/C: stronger effect = lower value
Procedure, shortened: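 Tumor cells were grown as complex spheroids with HUVEC endothelial cells and mesenchymal stem cells as stroma. G-quadruplex stabilizers were combined with targeted agents over half-log dilutions from near the clinical Cmax, or from 10 microM.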
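Also: spheroids exposed to compounds for seven days.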
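For viability, T/C in this document: 100% = DMSO vehicle control viability.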

Compound: CC1COCCN1c1cc(-c2ccnn2C)c2ccnc(-c3ccn[nH]3)c2n1 (configuration not stated) + CN(C)c1ccc(Nc2c3ccc(NC(=O)CCN4CCCC4)cc3nc3cc(NC(=O)CCN4CCCC4)ccc23)cc1
- IC50 (second compound 0.0316 µM): 260 nM
- IC50 (second compound 0.1 µM): 190 nM
- IC50 (second compound 0.316 µM): 175 nM
- IC50 (second compound 1 µM): 278 nM
- IC50 (second compound 3.16 µM): 176 nM
- IC50 (second compound 10 µM): 396 nM
- viability, T/C (second compound 0.0316 µM, first compound 0.0316 µM): 98.4%
- viability, T/C (second compound 0.0316 µM, first compound 0.1 µM): 73.4%
- viability, T/C (second compound 0.0316 µM, first compound 0.316 µM): 50.3%
- viability, T/C (second compound 0.0316 µM, first compound 1 µM): 16.7%
- viability, T/C (second compound 0.0316 µM, first compound 3.16 µM): 18%
- viability, T/C (second compound 0.0316 µM, first compound 10 µM): 20%
- viability, T/C (second compound 0.1 µM, first compound 0.0316 µM): 110%
- viability, T/C (second compound 0.1 µM, first compound 0.1 µM): 68.2%
- viability, T/C (second compound 0.1 µM, first compound 0.316 µM): 36.1%
- viability, T/C (second compound 0.1 µM, first compound 1 µM): 18.2%
- viability, T/C (second compound 0.1 µM, first compound 3.16 µM): 20.2%
- viability, T/C (second compound 0.1 µM, first compound 10 µM): 12.3%
- viability, T/C (second compound 0.316 µM, first compound 0.0316 µM): 105%
- viability, T/C (second compound 0.316 µM, first compound 0.1 µM): 58.1%
- viability, T/C (second compound 0.316 µM, first compound 0.316 µM): 46.9%
- viability, T/C (second compound 0.316 µM, first compound 1 µM): 16.8%
- viability, T/C (second compound 0.316 µM, first compound 3.16 µM): 16.5%
- viability, T/C (second compound 0.316 µM, first compound 10 µM): 19.6%
- viability, T/C (second compound 1 µM, first compound 0.0316 µM): 84.8%
- viability, T/C (second compound 1 µM, first compound 0.1 µM): 64.2%
- viability, T/C (second compound 1 µM, first compound 0.316 µM): 54.2%
- viability, T/C (second compound 1 µM, first compound 1 µM): 22.9%
- viability, T/C (second compound 1 µM, first compound 3.16 µM): 19.1%
- viability, T/C (second compound 1 µM, first compound 10 µM): 21.4%
- viability, T/C (second compound 3.16 µM, first compound 0.0316 µM): 119%
- viability, T/C (second compound 3.16 µM, first compound 0.1 µM): 52.7%
- viability, T/C (second compound 3.16 µM, first compound 0.316 µM): 54.3%
- viability, T/C (second compound 3.16 µM, first compound 1 µM): 18.2%
- viability, T/C (second compound 3.16 µM, first compound 3.16 µM): 21.3%
- viability, T/C (second compound 3.16 µM, first compound 10 µM): 22.4%
- viability, T/C (second compound 10 µM, first compound 0.0316 µM): 130%
- viability, T/C (second compound 10 µM, first compound 0.1 µM): 79.8%
- viability, T/C (second compound 10 µM, first compound 0.316 µM): 65.2%
- viability, T/C (second compound 10 µM, first compound 1 µM): 25.6%
- viability, T/C (second compound 10 µM, first compound 3.16 µM): 21.2%
- viability, T/C (second compound 10 µM, first compound 10 µM): 19.6%
